Test results taken from ChEMBL document CHEMBL1157910, “Structural requirement(s) of N-phenylthioureas and benzaldehyde thiosemicarbazones as inhibitors of melanogenesis in melanoma B 16 cells” (Bioorg Med Chem Lett, 2010).

Experiments:
B16 [1] = test: Inhibition of melanogenesis in mouse B16 cells; assay type: functional, cell-based
B16 [2] = test: Inhibition of melanogenesis in mouse B16 cells at 10 uM; assay type: functional
B16 [3] = test: Selectivity ratio for inhibition of melanogenesis in mouse B16 cell of compound to N-phenylthiourea; assay type: functional

Row | Structure (SMILES) | IC50 (B16 [1]) [µM] | inhibition at 10 µM (B16 [2]) [%] | Ratio (B16 [3])
1 | NC(=S)NCCCc1ccccc1 | > 10 | < 10 | 
2 | COc1ccccc1NC(N)=S | > 10 | < 10 | 
3 | Cc1ccc(NC(N)=S)cc1 | 5.5 | 83 | 
4 | NC(=S)NCCc1ccccc1 | > 10 | < 10 | 
5 | NC(=S)N/N=C/c1ccccc1 [PHENYLTHIOSEMICARBAZONE] | > 10 | < 10 | 
6 | Cc1ccccc1NC(N)=S | > 10 | < 10 | 
7 | NC(=S)Nc1ccccc1CO | > 10 | < 10 | 
8 | NC(=S)NCCCCc1ccccc1 | > 10 | < 10 | 
9 | COc1ccc(NC(N)=S)cc1 | 5.6 | 80 | 
10 | NC(=S)Nc1ccc(Cl)cc1 | 4 | 84 | 
11 | CCc1ccc(NC(N)=S)cc1 | 4.9 | 88 | 
12 | Cc1cccc(NC(N)=S)c1 | 5 | 78 | 
13 | NC(=S)Nc1ccccc1 [PHENYLTHIOUREA] | 5.4 | 84 | 
14 | NC(=S)Nc1ccc(O)cc1 | 6.3 | 70 | 
15 | Cc1ccc(/C=N/NC(N)=S)cc1 | 6.8 | 64 | 
16 | CCc1ccccc1NC(N)=S | > 10 | < 10 | 
17 | CC(C)(C)c1ccc(NC(N)=S)cc1 | 3.7 | 95 | 
18 | CC(C)(C)c1ccccc1NC(N)=S | > 10 | < 10 | 
19 | NC(=S)NCc1ccccc1 | > 10 | < 10 | 
20 | CCc1ccc(/C=N/NC(N)=S)cc1 | 3.4 | 100 | 2
